Legend:
patient-derived TICs = test: Subcutaneous xenograft of patient-derived TICs in NSG mice; type: in vivo, mouse; settings: no SAHA, i.p.
Description: To establish prognostic biomarkers for the best combination chemotherapy, five different patient-derived TICs were tested for responses as xenografts in NSG mice for the best combination chemotherapy based on mutation/transcriptome subtypes. Anti-tumorigenic ability by ATRA+SAHA targeting TICs encapsulated with SAHA was validated (Table 3). […] As placebo treatment, solvent (DMSO) in an equal total volume (0.2 ml/mouse) was injected. Tumor growth kinetics was studied. Combination of ATRA with SAHA further inhibited the self-renewal abilities of TICs in vivo (FIG. 17E).

TICs = test: RNA sequencing of drug treated TICs; type: cell-based, mouse; settings: ATRA 5 μg/ml, 16 hours
Description: RNA sequencing samples were collected at 16 hours of treatment with ATRA (5 μg/ml), SAHA (0.5 μg/ml) or combination treatment. Total RNA for RNA sequencing was extracted using RNeasy Plus Mini Kit (Qiagen), which includes a DNA depletion column. DNase I treatment and rRNA depletion with Tibozero technology were performed before RNA sequencing. Sample quantity and quality was verified by spectrophotometry (NanoDrop 1000), fluorimetry (Qubit), and the Aglient Bioanalyzer 2100 profiler. RNA Integrity Number (RIN) values of >7.0 and OD260/280=2.0-2.2 were used for RNA-seq library preparation. Extracted RNA (1 μg) was used for RNA sequencing (Illumina HiSeq2500 system). Sequenced reads were cleaned according to a rigorous pre-processing workflow (Trimmomatic-0.32) before mapping them to the mouse genome (mm10) using SHRiMP2.2.3 (http://compbio.cs.toronto.edu/shrimp/). Cufflinks2.0.2 (cuffdiff2-Running Cuffdiff) was then used to perform differential expression analysis with a FDR cutoff of 0.05 (95% confidence interval). A Perl script was used after differential expression analysis to improve the readability of the results files. Quality control information was generated via Fastqc: www.bioinformatics.babraham.ac.uk/projects/fastqc/. […] All gene expression profiles were analyzed by Partek Flow, Ingenuity Pathway Analysis and Gene Set Enrichment Analysis.

CC1=C(/C=C/C(C)=C/C=C/C(C)=C/C(=O)O)C(C)(C)CCC1 [ATRA, all-trans retinoic acid]
anti-tumorigenic ability, % (animals/total) (patient-derived TICs; ATRA 100 mg/m^2/day): 22% (7/32) | anti-tumorigenic ability, % (animals/total) (patient-derived TICs; ATRA 150 mg/m^2/day): 19% (6/32) | genes differentially expressed from the controls (TICs): 189 genes

Source: US20160304970A1, “GENE BIOMARKER TO DIAGNOSE METASTIC LIVER CANCER AND METHODS FOR TARGETING THE SAME” (University of Southern California, priority 2015, published 2016)
